# Source: ChEMBL document CHEMBL4190173 (Medchemcomm, 2016)
# The source made the active and inactive calls. The rule behind the calls is not given here.
# How the values were obtained:
# [1] = target: T1, NAD-dependent protein deacetylase sirtuin-1 (Homo sapiens) (UniProt Q96EB6); assay: Inhibition of human recombinant SIRT1 at 50 uM using AMC-p53 (379 to 382 residues) as substrate incubated for 45 mins followed by NAD+ addition measured after 30 mins by fluorescence assay relative to control
# T1 sequence (whole entry): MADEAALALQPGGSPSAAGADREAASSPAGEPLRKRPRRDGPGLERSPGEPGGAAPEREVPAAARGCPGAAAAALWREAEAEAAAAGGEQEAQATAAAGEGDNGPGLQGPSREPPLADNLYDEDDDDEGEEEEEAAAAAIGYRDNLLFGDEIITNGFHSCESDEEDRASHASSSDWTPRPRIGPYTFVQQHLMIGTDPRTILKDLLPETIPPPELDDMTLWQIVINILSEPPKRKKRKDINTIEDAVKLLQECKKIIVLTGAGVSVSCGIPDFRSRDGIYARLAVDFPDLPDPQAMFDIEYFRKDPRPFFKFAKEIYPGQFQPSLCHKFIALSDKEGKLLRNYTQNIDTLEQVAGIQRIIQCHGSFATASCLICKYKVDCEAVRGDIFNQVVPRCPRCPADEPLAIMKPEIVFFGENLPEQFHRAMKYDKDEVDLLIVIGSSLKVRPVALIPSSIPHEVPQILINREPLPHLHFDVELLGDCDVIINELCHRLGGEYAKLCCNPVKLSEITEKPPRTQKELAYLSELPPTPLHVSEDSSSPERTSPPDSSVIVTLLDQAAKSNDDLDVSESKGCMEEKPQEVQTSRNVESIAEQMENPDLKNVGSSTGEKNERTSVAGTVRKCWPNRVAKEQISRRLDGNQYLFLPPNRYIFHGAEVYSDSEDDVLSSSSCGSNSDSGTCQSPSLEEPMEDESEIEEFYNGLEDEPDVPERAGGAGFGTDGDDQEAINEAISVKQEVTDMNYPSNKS
# [2] = target: T2, NAD-dependent protein deacetylase sirtuin-2 (Homo sapiens) (UniProt Q8IXJ6); assay: Inhibition of human recombinant SIRT2 at 50 uM using AMC-p53 ([…] residues) as substrate incubated for 45 mins followed by NAD+ addition measured after 30 mins by fluorescence assay relative to control
# T2 sequence (whole entry): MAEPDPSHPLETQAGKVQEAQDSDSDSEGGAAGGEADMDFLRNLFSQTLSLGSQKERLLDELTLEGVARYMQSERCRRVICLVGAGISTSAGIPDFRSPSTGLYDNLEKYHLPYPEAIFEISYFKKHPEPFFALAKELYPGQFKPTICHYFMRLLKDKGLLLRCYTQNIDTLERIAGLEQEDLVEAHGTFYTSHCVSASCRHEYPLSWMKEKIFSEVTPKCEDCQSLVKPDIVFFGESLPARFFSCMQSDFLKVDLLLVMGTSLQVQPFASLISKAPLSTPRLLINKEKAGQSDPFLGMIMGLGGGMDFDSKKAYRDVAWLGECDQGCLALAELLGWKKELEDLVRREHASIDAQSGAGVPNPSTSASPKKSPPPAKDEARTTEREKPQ
# [3] = target: T3, NAD-dependent protein deacetylase sirtuin-3, mitochondrial (Homo sapiens) (UniProt Q9NTG7); assay: Inhibition of human recombinant SIRT3 at 50 uM using AMC-p53 ([…] residues) as substrate incubated for 45 mins followed by NAD+ addition measured after 30 mins by fluorescence assay relative to control
# T3 sequence (whole entry): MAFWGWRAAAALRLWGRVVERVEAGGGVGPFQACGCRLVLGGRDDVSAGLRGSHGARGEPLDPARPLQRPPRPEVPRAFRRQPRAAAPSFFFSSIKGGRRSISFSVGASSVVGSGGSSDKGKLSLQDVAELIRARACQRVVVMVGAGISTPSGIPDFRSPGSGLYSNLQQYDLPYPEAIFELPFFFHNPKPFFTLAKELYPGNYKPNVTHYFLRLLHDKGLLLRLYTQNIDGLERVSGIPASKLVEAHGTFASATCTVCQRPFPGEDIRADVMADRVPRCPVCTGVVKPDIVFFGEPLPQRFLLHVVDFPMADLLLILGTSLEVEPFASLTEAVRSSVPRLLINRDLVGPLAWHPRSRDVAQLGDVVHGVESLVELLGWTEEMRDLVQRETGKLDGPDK
# [4] = target: T4, NAD-dependent protein deacetylase sirtuin-1 (Homo sapiens, UniProt Q96EB6); assay: Inhibition of human recombinant SIRT1 using AMC-p53 (379 to 382 residues) as substrate incubated for 45 mins followed by NAD+ addition measured after 30 mins by fluorescence assay
# T4 sequence (Q96EB6 whole entry): T1 sequence (whole entry)
# [5] = target: T5, NAD-dependent protein deacetylase sirtuin-2 (Homo sapiens, UniProt Q8IXJ6); assay: Inhibition of human recombinant SIRT2 using AMC-p53 (317 to 320 residues) as substrate incubated for 45 mins followed by NAD+ addition measured after 30 mins by fluorescence assay
# T5 sequence (Q8IXJ6 whole entry): T2 sequence (whole entry)
# [6] = target: T6, NAD-dependent protein deacetylase sirtuin-3, mitochondrial (Homo sapiens, UniProt Q9NTG7); assay: Inhibition of human recombinant SIRT3 using AMC-p53 (317 to 320 residues) as substrate incubated for 45 mins followed by NAD+ addition measured after 30 mins by fluorescence assay
# T6 sequence (Q9NTG7 whole entry): T3 sequence (whole entry)
# [7] = target: T2, NAD-dependent protein deacetylase sirtuin-2 (Homo sapiens); assay: Competitive inhibition of human recombinant SIRT2 using varying levels of NAD+
# [8] = target: T2, NAD-dependent protein deacetylase sirtuin-2 (Homo sapiens); assay: Competitive inhibition of human recombinant SIRT2 using varying levels of AMC-p53 (317 to 320 residues) as substrate
Structure (SMILES),inhibition [1],inhibition [2],inhibition [3],IC50 [4],IC50 [5],IC50 [6],inhibition [7],inhibition [8]
CCCCCCCCn1c(-c2ccc(-c3ccc(C)cc3)cc2)nc2cc(C(=O)OCC)ccc21,15.3%,30.3%,19.4%,,,,,
CCCCCCCCn1c(-c2ccc(-c3ccc(OC(F)(F)F)cc3)cc2)nc2cc(C(=O)OCC)ccc21,25%,35.6%,16.9%,,,,,
CCOC(=O)c1ccc(N2CCN(CCn3c(-c4ccc(-c5ccc(Cl)cc5)cc4)nc4cc(C(=O)OCC)ccc43)CC2)c(N)c1,28.2%,43.3%,38%,,,,,
CCOC(=O)c1ccc(N2CCN(CCn3c(-c4ccc(-c5ccc(N(C)C)cc5)cc4)nc4cc(C(=O)OCC)ccc43)CC2)c(N)c1,,,,10.2 µM,2.92 µM,,Active,Active
CCOC(=O)c1ccc(N2CCN(CCn3c(-c4ccc(-c5ccc(OC(F)(F)F)cc5)cc4)nc4cc(C(=O)OCC)ccc43)CC2)c(N)c1,24.6%,37.2%,20.6%,,,,,
CCCCCCCCn1c(-c2ccc(-c3ccc4c(c3)OCO4)cc2)nc2cc(C(=O)OCC)ccc21,,,,> 50 µM,41.4 µM,> 50 µM,,
CCOC(=O)c1ccc(N2CCN(CCn3c(-c4ccc(-c5ccc(O)c(OC)c5)cc4)nc4cc(C(=O)OCC)ccc43)CC2)c(N)c1,,,,35.1 µM,8.61 µM,,,
CCOC(=O)c1ccc(N2CCN(CCn3c(-c4ccc(-c5ccc(C)cc5)cc4)nc4cc(C(=O)OCC)ccc43)CC2)c(N)c1,28.4%,43%,30.7%,,,,,
CCOC(=O)c1ccc(N2CCN(CCn3c(-c4ccc(-c5ccccc5)cc4)nc4cc(C(=O)OCC)ccc43)CC2)c(N)c1,31.1%,26.8%,25.1%,,,,,
CCOC(=O)c1ccc(N2CCN(CCn3c(-c4ccc(-c5ccc(O)cc5O)cc4)nc4cc(C(=O)OCC)ccc43)CC2)c(N)c1,,,,20 µM,7.87 µM,,,
CCOC(=O)c1ccc(N2CCN(CCn3c(-c4ccc(-c5ccc6c(c5)OCO6)cc4)nc4cc(C(=O)OCC)ccc43)CC2)c(N)c1,,,,29.8 µM,16.1 µM,27 µM,,
CCCCCCCCn1c(-c2ccc(-c3ccc(Cl)cc3)cc2)nc2cc(C(=O)OCC)ccc21,24.3%,38.3%,24.9%,,,,,

# Now from value to molecule:
inhibition [1],inhibition [2],inhibition [3],IC50 [4],IC50 [5],IC50 [6],inhibition [7],inhibition [8],Structure (SMILES)
22%,14%,24.4%,,,,,,CCCCCCCCn1c(-c2ccc(-c3cccc(-c4ccc(F)cn4)c3)cc2)nc2cc(C(=O)OCC)ccc21
29%,45.9%,31.5%,,,,,,CCCCCCCCn1c(-c2ccc(-c3ccc(O)cc3O)cc2)nc2cc(C(=O)OCC)ccc21
,,,> 50 µM,36.8 µM,> 50 µM,,,CCCCCCCCn1c(-c2ccc(-c3ccc(N4CCCCC4)cc3)cc2)nc2cc(C(=O)OCC)ccc21
,,,> 50 µM,38.1 µM,> 50 µM,,,CCCCCCCCn1c(-c2ccc(-c3ccc(N(C)C)cc3)cc2)nc2cc(C(=O)OCC)ccc21
,,,> 50 µM,46.9 µM,> 50 µM,,,CCCCCCCCn1c(-c2ccc(-c3ccc(O)c(OC)c3)cc2)nc2cc(C(=O)OCC)ccc21
,,,,,82.6 µM,,,CN(C)CCCCC(=O)Nc1ccc(NC(=S)NC(=O)c2ccc(C(C)(C)C)cc2)cc1
20.6%,20.9%,18.4%,,,,,,CCOC(=O)c1ccc(N2CCN(CCn3c(-c4ccc(-c5cncc(-c6ccc(F)cc6)c5)cc4)nc4cc(C(=O)OCC)ccc43)CC2)c(N)c1
,,,37 µM,13.5 µM,,,,CCOC(=O)c1ccc(N2CCN(CCn3c(-c4ccc(-c5ccc(N6CCCCC6)cc5)cc4)nc4cc(C(=O)OCC)ccc43)CC2)c(N)c1
23.9%,30%,20.4%,,,,,,CCCCCCCCn1c(-c2ccc(-c3ccccc3)cc2)nc2cc(C(=O)OCC)ccc21
